Data reported in patent US7078537B2, “Phenylalkyl diamine and amide analogs” (SK Corporation, priority 2001, dated 2006).
Read-outs that look alike come from different tables or passages of the source.

Legend:
sigma-1 receptor = target: T1, sigma-1 receptor (Cavia porcellus, UniProt Q60492); assay: Sigma-1 binding assay ([3H](+)-pentazocine); details: guinea pig brain membranes; for IC50: [3H](+)-pentazocine 2.4 nM, Table I; for inhibition at 0.01 µM: inhibition % at 10 nM, [3H](+)-pentazocine, Table II, read-out: Sigma 1 Inhib. %
T1 construct: their whole brains (without cerebellum) were rapidly removed and homogenized; from tissue; host or cells: guinea pig (male Hartley) whole brain without cerebellum, membrane homogenate
Description: (§1) Sigma-1 and Sigma-2 Binding Assay Methods
(§2) Compounds of the present inventions were tested for selective binding to the sigma-1 receptor and sigma-2 receptor as modified from Chaki et al. Eur. J. Pharmacol. 1994, 251, R1. and Akunne et al., Neuropharmacology, 1997, 36(1), 51.
(§3) Tissue Homogenate Preparation for Sigma-1 Binding Assay and Sigma-2 Binding Assay
(§4) Male Hartley guinea pigs each weighing 300–400 g were used in sigma subtype binding assay. Guinea pigs were killed by decapitation and their whole brains (without cerebellum) were rapidly removed and homogenized in 25 volumes(W/V) of ice-cold 50 mM Tris-HCl buffer(pH 7.4 buffer for sigma-1 binding assay and pH 8.0 buffer for sigma-2 binding assay). The homogenate was centrifuged in 48,000×g for 10 min at 4° C. The supernatant was discarded and the resulting pellets were resuspended in the sane volume of buffer and recentrifuged as described above. The pellets were resuspended and washed twice more in the same manner as described above. The final pellets were resuspended in 10 volumes(W/V) of ice-cold 50 mM Tris-HCl buffer to enable distribution of 2 ml aliquot in microcentrifuge tube, which were used immediately or kept at −80° C. for no more than 1 month before use.
Sigma-1 Binding Assay ([^3H](+)pentazocine)
The sigma-1 selective binding assay was performed using [^3H](+)-pentazocine as the radioligand (2.4 nM final concentration unless otherwise specified) and approximately […] of guinea pig brain membranes in a final volume of […] of 50 mM TRISHCl, pH7.4. Non-specific binding was determined in the presence of […]. For the standard equilibrium assay, the mixtures were incubated for 2 hours at 25°, and rapidly filtered over Whatman GF/C glass fiber filters, followed by three 4.5 ml rinses with ice-cold incubation buffer. The filters were placed in counting vials and 4 ml scintillation solution. The vials were counted in a Beckman scintillation counter.
(§5) IC50 values for sigma-1 or -2 binding assay were calculated using KELL RADLIG v.6.0.5.

sigma-2 receptor = target: T2, sigma-2 receptor (Cavia porcellus, UniProt H0V073); assay: Sigma-2 binding assay ([3H]DTG in the presence of (+)-SKF10047); details: guinea pig brain membranes, read-out: Sigma 2 Inhib. %
T2 construct: their whole brains (without cerebellum) were rapidly removed and homogenized; from tissue; host or cells: guinea pig (male Hartley) whole brain without cerebellum, membrane homogenate
T2 sequence (H0V073 1-176): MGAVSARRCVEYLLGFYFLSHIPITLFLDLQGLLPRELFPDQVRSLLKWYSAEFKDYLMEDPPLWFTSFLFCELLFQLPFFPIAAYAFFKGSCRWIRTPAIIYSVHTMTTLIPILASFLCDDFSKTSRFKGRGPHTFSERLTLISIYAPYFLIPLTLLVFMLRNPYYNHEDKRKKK
Description: as §1, §2, §3, §4
Sigma-2 Binding Assay([^3H]DTG)
The Sigma-2 selective binding assay was performed using 3.6 nM[^3H]DTG as the radioligand in the presence of 200 nM (+)-SKF10047 to block the Sigma-1 sites, with […] of guinea pig brain membranes in a total volume of 0.5 ml of 50 mM TRIS-HCl, pH8.0. Non-specific binding was determined in the presence of […]. Incubation condition and other manipulations were as described above for sigma-1 binding assay.
as §5

[1] = Inhibition % at 10 nM, [3H]DTG 3.6 nM, Table I
[2] = inhibition % at 10 nM, [3H]DTG, Table II

T1 sequence (Q60492 whole entry): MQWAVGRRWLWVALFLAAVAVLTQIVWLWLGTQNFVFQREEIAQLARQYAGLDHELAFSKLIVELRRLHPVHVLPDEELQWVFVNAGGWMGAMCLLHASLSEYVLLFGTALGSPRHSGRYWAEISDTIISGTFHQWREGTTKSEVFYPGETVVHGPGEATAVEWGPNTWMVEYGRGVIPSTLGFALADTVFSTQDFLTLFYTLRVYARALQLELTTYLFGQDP

SMILES	IC50 (sigma-1 receptor) [nM]	inhibition at 0.01 µM (sigma-2 receptor; [1]) [%]	inhibition at 0.01 µM (sigma-1 receptor) [%]	inhibition at 0.01 µM (sigma-2 receptor; [2]) [%]
CC(C)(C)c1ccc(CC(N)CN2CCCCCC2)cc1 (centres unmarked)	2.1	55.7	–	–
NC(Cc1ccc(C(F)(F)F)cc1)CN1CCCCCC1 (centres unmarked)	2	43.9	–	–
NC(Cc1ccc(Cl)cc1)CN1CCCCCC1 (centres unmarked)	13.9	36.8	–	–
NC(Cc1ccc(Cl)c(Cl)c1)CN1CCCCCC1 (centres unmarked)	12.1	12.5	–	–
CN(C(=O)Cc1ccc(Cl)c(Cl)c1)C(Cc1ccc(C(C)(C)C)cc1)CN1CCCCCC1 (centres unmarked)	35.7	51.4	–	–
CNC(Cc1ccc(C(C)(C)C)cc1)CN1CCCCCC1 (centres unmarked)	2.5	27.4	–	–
CN(C)C(Cc1ccc(C(C)(C)C)cc1)CN1CCCCCC1 (centres unmarked)	2.1	–	–	–
CC(C)(C)c1ccc(CC(CN2CCCCCC2)NCc2ccccc2)cc1 (centres unmarked)	10	–	–	–
O=C(Cc1ccc(Cl)c(Cl)c1)NC(CCN1CCCCCC1)c1ccccc1 (centres unmarked)	10.8	27.1	–	–
Clc1ccc(CCNC(CCN2CCCCCC2)c2ccccc2)cc1Cl (centres unmarked)	10.2	70.2	–	–
NC(Cc1cccc(C(F)(F)F)c1)CN1CCCCCC1 (centres unmarked)	–	–	42.9	31.3
NC(Cc1c(Cl)cccc1Cl)CN1CCCCCC1 (centres unmarked)	–	–	33.6	21.7
NC(Cc1ccc(Cl)c(Cl)c1)CN1CCC(Cc2ccccc2)CC1 (centres unmarked)	–	–	57.3	48.3
O=CNC(Cc1ccc(Cl)c(Cl)c1)CN1CCC(Cc2ccccc2)CC1 (centres unmarked)	–	–	71.9	39.9
CC(C)(C)c1ccc(CC(N)CN2CCC(Cc3ccccc3)CC2)cc1 (centres unmarked)	–	–	26.1	38.2
CNC(Cc1ccc(Cl)c(Cl)c1)CN1CCC(Cc2ccccc2)CC1 (centres unmarked)	–	–	66.1	72.7
CC(C)(C)c1ccc(CC(CN2CCC(Cc3ccccc3)CC2)NC=O)cc1 (centres unmarked)	–	–	52.7	6.1
NC(Cc1ccc(Cl)cc1Cl)CN1CCC(Cc2ccccc2)CC1 (centres unmarked)	–	–	56.9	48.3
CNC(Cc1ccc(C(C)(C)C)cc1)CN1CCC(Cc2ccccc2)CC1 (centres unmarked)	–	–	63.2	57.9
O=CNC(Cc1ccc(Cl)cc1Cl)CN1CCC(Cc2ccccc2)CC1 (centres unmarked)	–	–	74.5	24.3
CNC(Cc1ccc(Cl)cc1Cl)CN1CCC(Cc2ccccc2)CC1 (centres unmarked)	–	–	75.6	75
O=CNC(Cc1ccc(Cl)c(Cl)c1)CN1CCCCCC1 (centres unmarked)	–	–	67.7	37.8
NC(Cc1ccc(Cl)cc1Cl)CN1CCC(C(=O)c2ccccc2)CC1 (centres unmarked)	–	–	15.3	34.7
NC(Cc1ccc(Cl)cc1)CN1CCC(C(=O)c2ccccc2)CC1 (centres unmarked)	–	–	38.9	50
N[C@H](Cc1ccccc1)CN1CCC(C(=O)c2ccccc2)CC1	–	–	11.2	16.9
NC(Cc1ccccc1)CN1CCC(C(=O)c2ccccc2)CC1 (centres unmarked)	–	–	33.6	34
N[C@@H](Cc1ccccc1)CN1CCC(C(=O)c2ccccc2)CC1	–	–	39.8	33.3

SMILES	IC50 (sigma-1 receptor) [nM]	inhibition at 0.01 µM (sigma-2 receptor; [1]) [%]	inhibition at 0.01 µM (sigma-1 receptor) [%]	inhibition at 0.01 µM (sigma-2 receptor; [2]) [%]
N[C@@H](Cc1ccccc1)CN1CCC(C(=O)Cc2ccccc2)CC1	–	–	43.1	21.4
N[C@@H](Cc1ccccc1)CN1CCC(C(=O)c2ccc(Cl)cc2)CC1	–	–	61	53.6
N[C@@H](Cc1ccccc1)CN1CCC(C(=O)c2ccc(F)cc2)CC1	–	–	66.7	61.1
N[C@@H](Cc1ccccc1)CN1CCC(C(=O)c2ccc(Cl)c(Cl)c2)CC1	–	–	60.8	56.6
NC(Cc1ccc(Cl)cc1)CN1CCC(C(=O)c2ccc(Cl)cc2)CC1 (centres unmarked)	–	–	23.5	34.9
NC(Cc1ccc(Cl)cc1)CN1CCC(C(=O)c2ccc(F)cc2)CC1 (centres unmarked)	–	–	31.1	48.5
NC(Cc1ccc(Cl)cc1)CN1CCC(C(=O)c2ccc(Cl)c(Cl)c2)CC1 (centres unmarked)	–	–	24.7	51.7
NC(Cc1ccc(Cl)c(Cl)c1)CN1CCC(C(=O)c2ccccc2)CC1 (centres unmarked)	–	–	10.8	39.6
NC(Cc1ccc(Cl)c(Cl)c1)CN1CCC(C(=O)c2ccc(Cl)c(Cl)c2)CC1 (centres unmarked)	–	–	10.7	47.2
COc1ccc(C(=O)C2CCN(C[C@@H](N)Cc3ccccc3)CC2)cc1	–	–	49.1	39.8
COc1ccc(C(=O)C2CCN(CC(N)Cc3ccc(Cl)cc3)CC2)cc1 (centres unmarked)	–	–	19.5	31
N[C@@H](Cc1ccccc1)CN1CCC(C(=O)c2cccc(Cl)c2)CC1	–	–	82.9	73
NC(Cc1ccc(Cl)cc1)CN1CCC(C(=O)c2cccc(Cl)c2)CC1 (centres unmarked)	–	–	34.5	41.6
CC(C)(C)c1ccc(C(=O)C2CCN(C[C@@H](N)Cc3ccccc3)CC2)cc1	–	–	66.2	43.1
CC(C)(C)c1ccc(CC(N)CN2CCC(C(=O)c3ccccc3)CC2)cc1 (centres unmarked)	–	–	47.4	30
NC(CCN1CCC(Cc2ccccc2)CC1)c1ccccc1 (centres unmarked)	–	–	25.5	39.7
NC(CCCN1CCCCCC1)c1ccccc1 (centres unmarked)	–	–	7.1	21.6
NC(CCCCN1CCCCCC1)c1ccccc1 (centres unmarked)	–	–	9.3	32.5
Clc1ccc(CCNC(CCN2CCC(Cc3ccccc3)CC2)c2ccccc2)cc1Cl (centres unmarked)	–	–	28.8	22.6
O=CNC(CCN1CCC(Cc2ccccc2)CC1)c1ccccc1 (centres unmarked)	–	–	28.2	26.3
CNC(CCN1CCC(Cc2ccccc2)CC1)c1ccccc1 (centres unmarked)	–	–	36.3	54.1
NC(CCN1CCC(C(=O)Cc2ccccc2)CC1)c1ccccc1 (centres unmarked)	–	–	2.2	28.7
CC(C)(C)c1ccc(CC(N)CCN2CCC(Cc3ccccc3)CC2)cc1 (centres unmarked)	–	–	3.7	24.3
CNC(CCN1CCC(C(=O)c2ccc(F)cc2)CC1)c1ccccc1 (centres unmarked)	–	–	25.2	50.5
COc1ccc(C(=O)C2CCN(CCC(N)c3ccccc3)CC2)cc1 (centres unmarked)	–	–	3.2	30.9
NC(CCN1CCC(C(=O)c2ccc(Cl)cc2)CC1)c1ccccc1 (centres unmarked)	–	–	7.9	43.7
